According to article PMC9562005, “The Kinetic Mechanism of 3′-5′ Exonucleolytic Activity of AP Endonuclease Nfo from E. coli” (Cells, 2022):

Target: T1, Nfo (AP endonuclease Nfo, endonuclease IV) (Escherichia coli, UniProt P0A6C1)
T1 construct: full-length from pET-11a with nfo gene, expressed in E. coli BL21(DE3); 30 kDa, 3 Zn2+ in active site; the PDB entries are earlier structures of Nfo-DNA complexes
Experiment: stopped-flow 2-aminopurine fluorescence, inhibition of […]'-5' exonuclease
Assay type: biochemical

SMILES	IC50 [mM]
Nc1nc2c(ncn2[C@H]2C[C@H](O)[C@@H](COP(=O)(O)O)O2)c(=O)[nH]1 [2′-deoxyguanosine monophosphate]	3.2 ± 0.4
Cc1cn([C@H]2C[C@H](O)[C@@H](COP(=O)(O)O)O2)c(=O)[nH]c1=O [thymidine monophosphate]	4.4 ± 0.5
